Reference: patent US6361595B1, “Process for the preparation of pigment compositions” (Ciba Specialty Chemicals Corporation, priority 1999, dated 2002)

What was measured:
Format in all cases: cell-based, bacteria
[1] = test system: mixed culture of Gram-positive cocci, Gram-negative cocci, Gram-positive rods and Gram-negative rods; assay: Microbial contamination of dried Pigment Yellow 74 powder (Example 1 procedure) after mixing filter cake with bacterial culture
Description: (§1) Susceptibility to microbial contamination is assessed according to the following procedure:
(§2) Microbial contamination is assessed using individual bacteria of the morphological types, Gram-positive cocci, Gram-negative cocci, Gram-positive rods and Gram-negative rods which are maintained on Nutrient Agar slopes. When required, each is cultured in Nutrient broth at 30° C. until an organism count of >10^8 colony-forming units (cfu) per milliliter (ml) is reached. The individual cultures are then mixed in equal proportions to provide a mixed culture which is then used immediately.
(§3) 23.3 parts of acetic acid (80%) are added to a solution of 55 parts of acetoacet-o-anisidide dissolved in a solution of 25.5 parts of sodium hydroxide (47%) in 450 parts of water at a temperature of 0° C. The resultant slurry is reacted with 42.5 parts of p-nitro-o-anisidine previously diazotised with 45.4 parts of sodium nitrite (37%) and 56 parts of hydrochloric acid (36%) in the usual manner with simultaneous addition of sodium hydroxide solution (10%) to maintain pH 5.5-6.0. To the coupled slurry are then added 3 parts of dibutyl sebacate and 1 part of dimethylbenzyl-C12-14alkylammonium chloride (100% active) and the mixture is heated to a temperature of 100° C. and maintained at this temperature for one hour. The product is then filtered and washed with water under vacuum to remove soluble salts. The filter cake(still under vacuum suction) is mixed with a bacterial culture (10 ml of culture diluted to 100 ml with water)and vacuum suction is maintained until no further liquid emanates from the filter cake. The filter cake, without further washing, is then dried and converted to a powder by grinding. The powder is then passed through a 150 micron sieve.
The procedure described in Example 1 is repeated, but varying the type of biocide and amount of biocide used. The procedure for determining the extent of microbial contamination is as follows:
(§4) 10 mg of the sieved powder and one drop of sterile water are evenly spread on a Nutrient Agar plate with a glass spreader under aseptic conditions and the plate incubated at 30° C. for 48 hours, The number of bacterial colonies evident on each plate are then counted and expressed as the number of colony-forming units per gram (cfu/g).

[2] = test system: mixed culture of Gram-positive cocci, Gram-negative cocci, Gram-positive rods and Gram-negative rods; assay: Microbial contamination of dried Pigment Yellow 65 powder (Example 2 procedure) after mixing filter cake with bacterial culture
Description: as §1, §2, §4
as §3, with “(100%)” for “(80%)”, “o-nitro-p-anisidine” for “p-nitro-o-anisidine”, “cake (still” for “cake(still”, “water) and” for “water)and”
The procedure described in Example 2 is repeated, but varying the type of biocide and amount of biocide used.
The procedure described in Example 2 is repeated, but varying the type of biocide and amount of biocide used and omitting the DBS.

[3] = test system: mixed culture of Gram-positive cocci, Gram-negative cocci, Gram-positive rods and Gram-negative rods; assay: Microbial contamination of dried Pigment Yellow 13 powder (Example 5 procedure) after mixing filter cake with bacterial culture; conditions: PY13, no DBS
Description: as §1, §2, §4
A solution of 8.9 parts of acetic acid (100%) and 15 parts hydrochloric acid (36%) in 100 parts water are added to a solution of 63 parts of acetoacet-m-xylidide dissolved in a solution of 25.2 parts of sodium hydroxide (50%) in 676 parts of water at a temperature of 20° C. The resultant slurry is reacted with 36.9 parts of a previously tetrazotised solution of 3,3′-dichlorobenzidine, with simultaneous addition of sodium hydroxide solution (10%) to maintain pH 4.5-5.5. […] The product is then filtered and washed with water under vacuum to remove soluble salts. The filter cake (still under vacuum suction) is mixed with a bacterial culture (10 ml of culture diluted to 100 ml with water) and vacuum suction is maintained until no further liquid emanates from the filter cake. The filter cake, without further washing, is then dried and converted to a powder by grinding. The powder is then passed through a 150 micron sieve.

[4] = test system: mixed culture of Gram-positive cocci, Gram-negative cocci, Gram-positive rods and Gram-negative rods; assay: Microbial contamination of dried Pigment Yellow 74 powder (Example 1 procedure) after mixing filter cake with bacterial culture; remark: listed apart in the source

Measured: microbial contamination, colony-forming units per gram

Benzyldimethyl-C12-14-alkylammonium chloride [KLC]
0 cfu/g: [1]; PY74, 3 parts DBS + 1 part KLC | [1]; PY74, 3 parts dibutyl sebacate, 0.5 parts biocide, plate 30° C. 48 hours | [1]; PY74, 3 parts dibutyl sebacate, 1.0 parts biocide, plate 30° C. 48 hours | [1]; PY74, 3 parts dibutyl sebacate, 3.0 parts biocide, plate 30° C. 48 hours | [1]; PY74, 3 parts dibutyl sebacate, 5.0 parts biocide, plate 30° C. 48 hours | [2]; PY65, omitting the DBS, 1.0 parts biocide | [2]; PY65, omitting the DBS, 3.0 parts biocide | [2]; PY65, omitting the DBS, 5.0 parts biocide | [2]; PY65, with 3 parts dibutyl sebacate, 1.0 parts biocide | [2]; PY65, with 3 parts dibutyl sebacate, 3.0 parts biocide | [2]; PY65, with 3 parts dibutyl sebacate, 5.0 parts biocide | [3]; 3.0 parts biocide | [3]; 5.0 parts biocide | [4]; PY74, 0 parts DBS + 1 part KLC | [4]; PY74, 1 parts DBS + 1 part KLC | [4]; PY74, 2 parts DBS + 1 part KLC
1.3 × 10^4 cfu/g: [2]; PY65, omitting the DBS, 0.5 parts biocide
2.7 × 10^3 cfu/g: [2]; PY65, with 3 parts dibutyl sebacate, 0.5 parts biocide
>10^4 cfu/g: [1]; PY74, 3 parts dibutyl sebacate, 0.1 parts biocide, plate 30° C. 48 hours | [3]; 0.5 parts biocide | [3]; 1.0 parts biocide
